The text below walks through data of ChEMBL document CHEMBL3352775, “Identification of substituted 3-hydroxy-2-mercaptocyclohex-2-enones as potent inhibitors of human lactate dehydrogenase” (Bioorg Med Chem Lett, 2014).

≈ marks a conversion by molar mass, not a printed value.

Series [1] has as its target T1, L-lactate dehydrogenase A chain (Homo sapiens, UniProt P00338). In words: Inhibition of human recombinant carboxy-terminal His-tagged LDHA by UV endpoint assay.
For series [2], the target named is T1, L-lactate dehydrogenase A chain. Briefly: Inhibition of human recombinant carboxy-terminal His-tagged LDHA by SPR assay.
Series [3] can be described thus: Clearance in Sprague-Dawley rat liver microsomes at 1 uM up to 60 mins by LC-MS/MS analysis. It counts as ADME.
The nature of series [4]: Clearance in human liver microsomes at 1 uM up to 60 mins by LC-MS/MS analysis. It counts as ADME.
Series [5] can be described thus: Aqueous solubility of the compound in PBS buffer at pH 7.2. It counts as physicochemical.
A further series has as its target Cytochrome P450 3A4 (Homo sapiens, UniProt P08684). Briefly: Inhibition of CYP3A4 (unknown origin). The class given is ADME.
The next series has as its target Cytochrome P450 2D6 (Homo sapiens, UniProt P10635). In words: Inhibition of CYP2D6 (unknown origin). The class given is ADME.
The target of a further series is Cytochrome P450 2C9 (Homo sapiens, UniProt P11712). Briefly: Inhibition of CYP2C9 (unknown origin). It counts as ADME.
Cytochrome P450 2C9, sequence (P11712 whole entry): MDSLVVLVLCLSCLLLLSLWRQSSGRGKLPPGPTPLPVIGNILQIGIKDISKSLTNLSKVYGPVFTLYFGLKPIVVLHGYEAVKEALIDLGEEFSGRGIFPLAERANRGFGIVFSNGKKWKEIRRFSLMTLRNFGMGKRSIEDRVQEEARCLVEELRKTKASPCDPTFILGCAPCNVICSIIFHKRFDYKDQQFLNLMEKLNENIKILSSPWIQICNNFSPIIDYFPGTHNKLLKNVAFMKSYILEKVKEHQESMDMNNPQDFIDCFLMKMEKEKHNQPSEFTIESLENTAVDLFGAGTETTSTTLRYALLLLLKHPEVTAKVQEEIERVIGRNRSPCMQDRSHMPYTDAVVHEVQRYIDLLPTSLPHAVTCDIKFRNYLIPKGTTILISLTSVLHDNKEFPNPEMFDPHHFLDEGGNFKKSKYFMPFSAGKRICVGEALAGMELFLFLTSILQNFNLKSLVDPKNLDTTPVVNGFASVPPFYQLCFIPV
The target of another series is T2, Cytochrome P450 1A2 (Homo sapiens, UniProt P05177).
T2 sequence (P05177 whole entry): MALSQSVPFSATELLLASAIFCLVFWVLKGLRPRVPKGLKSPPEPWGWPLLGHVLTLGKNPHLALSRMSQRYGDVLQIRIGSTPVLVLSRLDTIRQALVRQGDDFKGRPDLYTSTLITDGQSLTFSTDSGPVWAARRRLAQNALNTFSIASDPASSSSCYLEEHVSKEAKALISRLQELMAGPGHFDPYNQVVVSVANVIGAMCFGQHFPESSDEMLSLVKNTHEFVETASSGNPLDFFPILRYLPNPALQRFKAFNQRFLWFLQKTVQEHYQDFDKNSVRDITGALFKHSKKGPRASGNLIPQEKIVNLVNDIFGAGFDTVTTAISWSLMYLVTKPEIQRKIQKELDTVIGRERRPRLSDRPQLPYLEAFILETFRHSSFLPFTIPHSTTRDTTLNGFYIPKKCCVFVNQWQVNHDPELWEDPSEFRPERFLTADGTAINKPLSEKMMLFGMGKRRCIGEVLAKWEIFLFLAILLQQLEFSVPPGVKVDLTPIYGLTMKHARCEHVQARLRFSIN
In words: Inhibition of CYP1A2 (unknown origin). It counts as ADME.

For series [6], the target named is L-lactate dehydrogenase B chain (Homo sapiens, UniProt P07195).
L-lactate dehydrogenase B chain, sequence (P07195 whole entry): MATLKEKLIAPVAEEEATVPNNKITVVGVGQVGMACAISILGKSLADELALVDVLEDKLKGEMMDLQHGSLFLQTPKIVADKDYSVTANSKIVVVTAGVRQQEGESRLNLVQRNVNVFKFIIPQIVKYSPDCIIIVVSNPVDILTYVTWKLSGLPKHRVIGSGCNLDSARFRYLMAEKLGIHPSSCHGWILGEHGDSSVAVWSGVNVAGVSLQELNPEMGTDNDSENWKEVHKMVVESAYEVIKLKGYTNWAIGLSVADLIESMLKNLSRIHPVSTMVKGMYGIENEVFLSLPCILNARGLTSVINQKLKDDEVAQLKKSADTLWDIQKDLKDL
Description: Inhibition of human recombinant carboxy-terminal His-tagged LDHB by UV endpoint assay
Series [7] is described as follows: Fraction unbound in rat plasma by LC-MS/MS analysis. The class given is ADME, cell-free.
A short description of series [8]: Fraction unbound in human plasma by LC-MS/MS analysis. The class given is ADME, cell-free.
A short description of series [9]: Apparent permeability from apical to basolateral side in MDCK cells at 2 uM by LC-MS/MS analysis. Conditions: dog. It counts as ADME, cell-based, Canis lupus familiaris.
A short description of series [10]: AUC (0 to 24 hrs) in Sprague-Dawley rat at 0.5 mg/kg, iv. It counts as ADME, organism-based. Also noted: time < 24 hr, dose 0.5 mg/kg, route intravenous. To be noted: plasma.
Series [11] in a line: Clearance in Sprague-Dawley rat plasma at 0.5 mg/kg, iv by LC-MS/MS analysis. Also noted: dose 0.5 mg/kg, route intravenous. It counts as ADME, organism-based.
The nature of series [12]: Volume of distribution at steady state in Sprague-Dawley rat at 0.5 mg/kg, iv. It counts as ADME, organism-based. More on the design: dose 0.5 mg/kg, route intravenous. Conditions: in vivo, read-out: Vdss.
Series [13] can be described thus: Half life in Sprague-Dawley rat plasma at 0.5 mg/kg, iv. Also noted: dose 0.5 mg/kg, route intravenous. It counts as ADME, organism-based.
The nature of series [14]: AUC (0 to 24 hrs) in Sprague-Dawley rat at 2 mg/kg, po. It counts as ADME, organism-based. Also noted: time < 24 hr, dose 2 mg/kg, route oral. Conditions: plasma.
Series [15] can be described thus: Half life in Sprague-Dawley rat plasma at 2 mg/kg, po. It counts as ADME, organism-based. Also noted: dose 2 mg/kg, route oral.
Series [16] can be described thus: Oral bioavailability in Sprague-Dawley rat plasma at 2 mg/kg. It counts as ADME, organism-based.
Series [17] has as its target T3, Malate dehydrogenase, cytoplasmic (Homo sapiens, UniProt P40925).
T3 sequence (P40925 whole entry): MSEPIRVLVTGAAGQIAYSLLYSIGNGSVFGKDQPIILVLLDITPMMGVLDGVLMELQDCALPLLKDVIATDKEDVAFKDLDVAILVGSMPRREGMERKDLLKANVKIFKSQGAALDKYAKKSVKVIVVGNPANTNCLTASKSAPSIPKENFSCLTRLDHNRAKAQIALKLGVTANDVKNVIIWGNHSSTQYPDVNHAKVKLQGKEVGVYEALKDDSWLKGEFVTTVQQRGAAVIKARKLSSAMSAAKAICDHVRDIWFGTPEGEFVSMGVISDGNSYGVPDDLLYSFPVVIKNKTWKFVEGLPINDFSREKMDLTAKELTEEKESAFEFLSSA
In words: Inhibition of human recombinant carboxy-terminal His-tagged MDH-1.

Series [18] has as its target T4, Malate dehydrogenase, mitochondrial (Homo sapiens, UniProt P40926).
T4 sequence (P40926 whole entry): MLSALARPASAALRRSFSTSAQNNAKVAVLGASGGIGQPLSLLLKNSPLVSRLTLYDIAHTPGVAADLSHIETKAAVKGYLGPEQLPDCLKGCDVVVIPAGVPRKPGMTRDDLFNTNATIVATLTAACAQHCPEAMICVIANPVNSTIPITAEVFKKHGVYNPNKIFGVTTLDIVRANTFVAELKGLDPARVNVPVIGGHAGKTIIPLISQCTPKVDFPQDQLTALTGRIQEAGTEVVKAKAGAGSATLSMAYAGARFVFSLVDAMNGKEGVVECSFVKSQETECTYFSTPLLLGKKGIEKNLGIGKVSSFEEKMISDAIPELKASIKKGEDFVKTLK
In words: Inhibition of human recombinant carboxy-terminal His-tagged MDH-2.

The target of series [19] is T1, L-lactate dehydrogenase A chain. Briefly: Inhibition of human recombinant carboxy-terminal His-tagged LDHA by MS endpoint assay.
Series [20] shares this target. Briefly: Inhibition of human recombinant carboxy-terminal His-tagged LDHA by SPR assay in presence of +NADH.
Series [21] can be described thus: Dissociation constant, pKa of the compound. The class given is physicochemical.

Cytochrome P450 2D6, sequence (P10635 whole entry): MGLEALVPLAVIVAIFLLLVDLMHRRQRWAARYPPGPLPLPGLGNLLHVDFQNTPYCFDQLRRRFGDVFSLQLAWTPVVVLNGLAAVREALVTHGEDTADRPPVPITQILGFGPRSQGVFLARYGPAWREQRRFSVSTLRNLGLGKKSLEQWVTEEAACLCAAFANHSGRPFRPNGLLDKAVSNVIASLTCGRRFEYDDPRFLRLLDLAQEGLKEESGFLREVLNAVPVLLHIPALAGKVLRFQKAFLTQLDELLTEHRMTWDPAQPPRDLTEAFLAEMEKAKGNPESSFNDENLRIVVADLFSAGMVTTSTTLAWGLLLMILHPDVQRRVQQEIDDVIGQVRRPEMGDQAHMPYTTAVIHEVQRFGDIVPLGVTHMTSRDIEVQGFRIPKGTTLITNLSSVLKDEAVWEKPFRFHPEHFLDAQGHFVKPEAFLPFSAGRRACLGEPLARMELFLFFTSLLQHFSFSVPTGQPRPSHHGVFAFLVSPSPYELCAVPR
Cytochrome P450 3A4, sequence (P08684 whole entry): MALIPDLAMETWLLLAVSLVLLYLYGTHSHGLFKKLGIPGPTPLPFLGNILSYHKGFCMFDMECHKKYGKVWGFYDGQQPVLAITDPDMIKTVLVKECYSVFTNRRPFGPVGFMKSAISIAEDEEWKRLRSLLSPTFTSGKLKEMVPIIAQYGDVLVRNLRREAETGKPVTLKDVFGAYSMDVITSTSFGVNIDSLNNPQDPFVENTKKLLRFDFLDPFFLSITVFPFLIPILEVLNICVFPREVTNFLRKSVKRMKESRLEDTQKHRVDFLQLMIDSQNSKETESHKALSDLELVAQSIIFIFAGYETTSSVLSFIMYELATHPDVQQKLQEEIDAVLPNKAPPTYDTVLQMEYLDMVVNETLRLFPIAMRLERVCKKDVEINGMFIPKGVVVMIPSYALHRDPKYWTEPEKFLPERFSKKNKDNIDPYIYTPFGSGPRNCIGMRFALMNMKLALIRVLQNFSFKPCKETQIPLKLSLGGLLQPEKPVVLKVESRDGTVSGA

`O=C1CC(c2c(Cl)cccc2C(F)(F)F)CC(O)=C1Sc1ccccc1Cl` (configuration not stated): the IC50 in [1] is 1 µM; against Cytochrome P450 3A4, above 5 µM; at Cytochrome P450 2D6, above 5 µM; against Cytochrome P450 2C9, above 5 µM; on Cytochrome P450 1A2 it was above 5 µM. For the same compound, the Kd in [2] worked out at 0.5 µM. The CLhep predicted at 1 µM is 2.22 L/h/kg in series [3] and 1.02 L/h/kg in [4]. The concentration in solution in [5] (solubility) was 117 µM (≈ 50.7 µg/mL).
Consider `O=C1CC(c2c(Cl)ccc(Br)c2Cl)CC(O)=C1Sc1ccccc1Cl` (configuration not stated), for which the results for the half-maximal inhibitory concentration (IC50) in series [1] and in series [6] were 0.5 µM and above 10 µM, respectively. In series [2], the Kd worked out at 0.37 µM.
As to `O=C1CC(c2c(Cl)cccc2Cl)CC(O)=C1Sc1ccccc1Cl` (configuration not stated), the IC50 in series [1] was 0.87 µM; on Cytochrome P450 3A4, above 5 µM; against Cytochrome P450 2D6 it was above 5 µM; against Cytochrome P450 2C9, above 5 µM; against Cytochrome P450 1A2, above 5 µM; in [17], above 100 µM. Further, the IC50 in [18] was above 100 µM. In addition, the Kd in [2] came to 1.8 µM. The CLhep predicted at 1 µM in [3] was 1.62 L/h/kg; in series [4] it was 0.84 L/h/kg. The fraction unbound in series [7] was determined as 0.002; in series [8], 0.005. In [9], the Papp A→B at 2 µM amounted to 170 nm/s. The concentration in solution in [5] (solubility) was 128 µM (≈ 51.2 µg/mL). In addition, the exposure AUC(0-t) at 24 h in series [10] amounted to 60.3 µM·h; in [14], 142 µM·h. In addition, the clearance in [11] was 0.021 L/h/kg. Further, the Vd in series [12] was 0.39 L. Further, the half-life in series [13] was 13.2 h; in [15], 10.7 h. The same compound returned a bioavailability in series [16] of 45%.
In the case of `N#Cc1ccccc1SC1=C(O)CC(c2c(Cl)cccc2Br)CC1=O` (configuration not stated), the IC50 in [1] is 0.45 µM; against Cytochrome P450 3A4, above 5 µM; on Cytochrome P450 2D6 it was above 5 µM; against Cytochrome P450 2C9, above 5 µM; against Cytochrome P450 1A2, above 5 µM; in series [6], 2 µM. In addition, the Kd in [2] stood at 0.24 µM. In addition, the CLhep predicted at 1 µM in series [3] was 1.86 L/h/kg; in series [4], 0.9 L/h/kg. Moreover, the fraction unbound in [7] was determined as 0.005; in series [8], 0.002. Also, the Papp A→B at 2 µM in [9] turned out to be 140 nm/s. Besides, the concentration in solution in series [5] (solubility) came to 75 µM (≈ 32.6 µg/mL).
On to `O=C1CC(c2ccccc2)CC(O)=C1Sc1ccccc1[N+](=O)[O-]` (configuration not stated), for which the IC50 came out at 1.7 µM in series [1] and 0.88 µM in series [19]. Besides, the dissociation constant Kd in series [20] amounted to 3.5 µM; in [2], 771 µM. In series [21], the pKa was found to be 2.63.
As to `O=C1CC(c2c(Cl)cccc2Br)CC(O)=C1Sc1ccccc1Cl` (configuration not stated), the IC50 in series [1] stood at 0.58 µM; in [6], 3.4 µM. The Kd in [2] turned out to be 0.49 µM.
Turning to `O=C1CC(c2c(C(F)(F)F)cccc2C(F)(F)F)CC(O)=C1Sc1ccccc1Cl` (configuration not stated), the IC50 was 15 µM in series [1]; above 5 µM against Cytochrome P450 3A4; above 5 µM against Cytochrome P450 2D6; above 5 µM against Cytochrome P450 2C9; above 5 µM at Cytochrome P450 1A2; 7.4 µM in series [6]. In addition, the values for the CLhep predicted at 1 µM in series [3] and in [4] were 2.28 L/h/kg and 1.08 L/h/kg, respectively. In addition, the concentration in solution in series [5] (solubility) was 143 µM (≈ 66.8 µg/mL).
In the case of `COc1ccc(C2CC(=O)C(Sc3ccccc3Cl)=C(O)C2)cc1` (configuration not stated), the IC50 in series [1] came out at 19 µM; in [6], 6.9 µM. In addition, the dissociation constant (Kd) in series [2] was found to be 13 µM.
As for `O=C1CC(c2ccccc2)CC(O)=C1Sc1ccccc1Cl` (configuration not stated), the IC50 was 4.6 µM in series [1]; above 5 µM against Cytochrome P450 3A4; above 5 µM at Cytochrome P450 2D6; above 5 µM against Cytochrome P450 2C9; above 5 µM against Cytochrome P450 1A2. In addition, in series [2], the dissociation constant (Kd) amounted to 4.3 µM. Also, the CLhep predicted at 1 µM in series [3] was 0.84 L/h/kg; in series [4] it was 0.234 L/h/kg. Moreover, the fraction unbound in [7] was 0.002; in [8] it was 0.001. Besides, in series [9], the Papp A→B at 2 µM is 180 nm/s. The compound further registered a solubility in series [5] of 147 µM (≈ 48.6 µg/mL).
Turning to `N#Cc1ccccc1SC1=C(O)CC(c2ccccc2)CC1=O` (configuration not stated), the IC50 is 1.6 µM in series [1]; above 5 µM on Cytochrome P450 3A4; above 5 µM on Cytochrome P450 2D6; above 5 µM on Cytochrome P450 2C9; above 5 µM against Cytochrome P450 1A2. Besides, the Kd in series [2] came to 1.5 µM. Moreover, the CLhep predicted at 1 µM was 0.312 L/h/kg in series [3] and 0.096 L/h/kg in series [4]. Also, the values for the fraction unbound in [7] and in series [8] were 0.01 and 0.001, respectively. For the same compound, the Papp A→B at 2 µM in [9] turned out to be 41 nm/s. Besides, the solubility in series [5] was 118 µM (≈ 37.9 µg/mL).
On to `N#Cc1ccccc1SC1=C(O)CC(c2c(Cl)cccc2Cl)CC1=O` (configuration not stated), for which the IC50 in [1] is 0.83 µM; at Cytochrome P450 3A4, above 5 µM; at Cytochrome P450 2D6, above 5 µM; on Cytochrome P450 2C9, above 5 µM; at Cytochrome P450 1A2 it was above 5 µM; in [6], 4.9 µM. In series [2], the Kd came to 0.43 µM. For the same compound, the values for the CLhep predicted at 1 µM in series [3] and in series [4] were 1.44 L/h/kg and 0.72 L/h/kg, respectively. For the same compound, the concentration in solution in series [5] (solubility) was 117 µM (≈ 45.7 µg/mL).
For `O=C1CC(c2ccccc2Cl)CC(O)=C1Sc1ccccc1Cl` (configuration not stated), in series [1], the IC50 worked out at 5.6 µM. In addition, in series [2], the Kd turned out to be 8.2 µM.
